Test system: H-358 lung epithelial cancer cells
Experiment: Cytotoxicity (Alamar blue)
Format: cell-based, human
Conditions: ~6 hours, 10% fetal bovine serum
Method: FIG. 12 is a graph showing comparison of toxicities against Lung Primary Epithelial cells and Lung Cancerous Epithelial Cells, derived from H358 cell-line. Non-linear regression analysis of six-hour cytotoxicity data was performed to identify the concentration to achieve 50% lethality (LD50) for each toxic peptide. Each peptide was tested in triplicate.
Cytotoxicity. Cells were seeded in complete growth medium (Minimal Essential Medium, MEMα, supplemented with 10% Fetal Bovine Serum) into a culture-treated 96-well plate at a density of 25000 cells per well. After 24 hours, culture media was aspirated and replaced with media containing the selected peptide. No-serum experiments were conducted in Opti-MEM I reduced serum media (ThermoFisher, 31985062) and 10% serum experiments were performed in complete growth medium. In all cases, DBPS was used as a vehicle only control and buffer to serially dilute the peptides. After exposure to the peptides or vehicle-alone for the defined period, Alamar blue dye (resazurin) was added directly to the media and allowed to incubate for two hours. Following incubation, A570/A600 measurements were made to calculate reduction of resazurin dye to resorufin. A ratio of reduction in treated versus untreated cells was calculated in order to determine overall cell viability. The human cells were always maintained in a 37° C. incubator under 5% CO2. […]

## RRWKRFFKRWKGGVIGVTFPF (SEQ ID NO: 50) [ATRA1-R3W2-HYD, ATRA1-R3W2 with hydrophobic tail of NA-CATH joined by -GG-]
  LD50: ~24.5 µM
